{
  "source": "ChEMBL document CHEMBL5505970",
  "about": "(J Med Chem, 2024)",
  "key": {"[1]": {"assay": "Clearance in Sprague-Dawley rat at 1 mg/kg, iv formulated as a solution in 10% PG:18% PEG400 in water or 5% NMP:95% (10% VitE TPGS in water) measured for 24 hrs by reverse phase liquid chromatography coupled to mass spectrometry", "format": "ADME, organism-based", "conditions": "in vivo"}, "[2]": {"assay": "Clearance in rat liver microsomes at 1 uM in presence of NADPH by ESI/LC-MS/MS analysis", "format": "ADME, Microsome", "conditions": "read-out: CLH"}, "[3]": {"assay": "Clearance in rat hepatocytes at 1 uM measured per million cells by ESI/LC-MS/MS analysis", "format": "ADME, cell-based, Hepatocyte", "conditions": "read-out: CLH"}, "[4]": {"assay": "Clearance in dog liver microsomes at 1 uM in presence of NADPH by ESI/LC-MS/MS analysis", "format": "ADME, Canis lupus familiaris, Microsome", "conditions": "read-out: CLH"}, "[5]": {"assay": "Clearance in dog hepatocytes at 1 uM measured per million cells by ESI/LC-MS/MS analysis", "format": "ADME, cell-based, Canis lupus familiaris, Hepatocyte", "conditions": "read-out: CLH"}, "[6]": {"molecular_target": "Serine/threonine-protein kinase SMG1 (Homo sapiens) (UniProt Q96Q15)", "assay": "Inhibition of SMG1 in human Jurkat cell lysates at 0.03 to 0.3 uM in presence of biotinylated ADP by KiNativ profiling based mass spectrometry", "format": "subcellular", "conditions": "dose 0.03-0.3 µM"}, "[7]": {"molecular_target": "Phosphatidylinositol 4-phosphate 3-kinase C2 domain-containing subunit beta (Homo sapiens) (UniProt O00750)", "sequence (O00750 whole entry, the tested form may be a part)": "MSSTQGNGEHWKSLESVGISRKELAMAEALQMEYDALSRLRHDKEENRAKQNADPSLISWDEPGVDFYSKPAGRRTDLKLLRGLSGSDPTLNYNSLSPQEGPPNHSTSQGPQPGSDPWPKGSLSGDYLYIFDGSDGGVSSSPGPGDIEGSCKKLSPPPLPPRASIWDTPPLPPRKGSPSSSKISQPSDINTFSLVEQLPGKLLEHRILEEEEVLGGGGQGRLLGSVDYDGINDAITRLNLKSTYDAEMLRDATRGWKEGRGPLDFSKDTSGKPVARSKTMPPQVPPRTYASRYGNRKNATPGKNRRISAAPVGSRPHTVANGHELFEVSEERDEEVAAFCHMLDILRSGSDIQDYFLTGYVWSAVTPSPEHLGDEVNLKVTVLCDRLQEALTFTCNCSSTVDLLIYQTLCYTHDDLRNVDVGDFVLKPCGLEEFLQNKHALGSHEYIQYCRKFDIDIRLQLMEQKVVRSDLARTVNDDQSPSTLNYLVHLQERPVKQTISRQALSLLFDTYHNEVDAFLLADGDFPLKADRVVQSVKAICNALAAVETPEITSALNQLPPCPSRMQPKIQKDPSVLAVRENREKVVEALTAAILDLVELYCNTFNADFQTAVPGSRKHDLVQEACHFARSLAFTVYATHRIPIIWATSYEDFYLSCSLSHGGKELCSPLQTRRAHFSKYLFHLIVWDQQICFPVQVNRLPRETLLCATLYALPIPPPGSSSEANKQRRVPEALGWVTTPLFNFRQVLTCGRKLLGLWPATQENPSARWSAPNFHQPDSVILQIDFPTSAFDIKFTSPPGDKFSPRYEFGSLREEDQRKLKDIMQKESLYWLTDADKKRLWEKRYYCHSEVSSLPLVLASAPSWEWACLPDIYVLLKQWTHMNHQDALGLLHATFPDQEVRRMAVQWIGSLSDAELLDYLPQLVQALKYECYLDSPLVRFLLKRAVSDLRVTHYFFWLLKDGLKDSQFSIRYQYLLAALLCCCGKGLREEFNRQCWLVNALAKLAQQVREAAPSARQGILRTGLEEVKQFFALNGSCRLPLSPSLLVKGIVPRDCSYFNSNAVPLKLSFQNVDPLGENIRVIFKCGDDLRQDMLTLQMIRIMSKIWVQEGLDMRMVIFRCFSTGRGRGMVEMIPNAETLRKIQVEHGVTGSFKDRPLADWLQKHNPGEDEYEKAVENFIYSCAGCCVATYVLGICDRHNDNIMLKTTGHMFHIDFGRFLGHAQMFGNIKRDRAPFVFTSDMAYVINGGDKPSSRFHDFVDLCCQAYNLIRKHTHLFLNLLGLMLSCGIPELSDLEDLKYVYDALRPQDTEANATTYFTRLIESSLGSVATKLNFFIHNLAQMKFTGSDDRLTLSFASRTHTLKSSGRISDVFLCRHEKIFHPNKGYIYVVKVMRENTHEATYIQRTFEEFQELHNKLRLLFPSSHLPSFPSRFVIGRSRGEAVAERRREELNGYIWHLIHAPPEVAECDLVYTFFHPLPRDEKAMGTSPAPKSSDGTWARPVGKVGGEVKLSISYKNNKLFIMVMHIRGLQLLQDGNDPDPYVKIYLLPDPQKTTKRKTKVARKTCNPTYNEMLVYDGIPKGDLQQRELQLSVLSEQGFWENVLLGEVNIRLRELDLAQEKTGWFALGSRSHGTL", "assay": "Inhibition of PIK3C2B in human Jurkat cell lysates at 0.3 uM in presence of biotinylated ADP by KiNativ profiling based mass spectrometry", "format": "subcellular"}, "[8]": {"molecular_target": "Serine-protein kinase ATM (Homo sapiens, UniProt Q13315)", "sequence (Q13315 whole entry)": "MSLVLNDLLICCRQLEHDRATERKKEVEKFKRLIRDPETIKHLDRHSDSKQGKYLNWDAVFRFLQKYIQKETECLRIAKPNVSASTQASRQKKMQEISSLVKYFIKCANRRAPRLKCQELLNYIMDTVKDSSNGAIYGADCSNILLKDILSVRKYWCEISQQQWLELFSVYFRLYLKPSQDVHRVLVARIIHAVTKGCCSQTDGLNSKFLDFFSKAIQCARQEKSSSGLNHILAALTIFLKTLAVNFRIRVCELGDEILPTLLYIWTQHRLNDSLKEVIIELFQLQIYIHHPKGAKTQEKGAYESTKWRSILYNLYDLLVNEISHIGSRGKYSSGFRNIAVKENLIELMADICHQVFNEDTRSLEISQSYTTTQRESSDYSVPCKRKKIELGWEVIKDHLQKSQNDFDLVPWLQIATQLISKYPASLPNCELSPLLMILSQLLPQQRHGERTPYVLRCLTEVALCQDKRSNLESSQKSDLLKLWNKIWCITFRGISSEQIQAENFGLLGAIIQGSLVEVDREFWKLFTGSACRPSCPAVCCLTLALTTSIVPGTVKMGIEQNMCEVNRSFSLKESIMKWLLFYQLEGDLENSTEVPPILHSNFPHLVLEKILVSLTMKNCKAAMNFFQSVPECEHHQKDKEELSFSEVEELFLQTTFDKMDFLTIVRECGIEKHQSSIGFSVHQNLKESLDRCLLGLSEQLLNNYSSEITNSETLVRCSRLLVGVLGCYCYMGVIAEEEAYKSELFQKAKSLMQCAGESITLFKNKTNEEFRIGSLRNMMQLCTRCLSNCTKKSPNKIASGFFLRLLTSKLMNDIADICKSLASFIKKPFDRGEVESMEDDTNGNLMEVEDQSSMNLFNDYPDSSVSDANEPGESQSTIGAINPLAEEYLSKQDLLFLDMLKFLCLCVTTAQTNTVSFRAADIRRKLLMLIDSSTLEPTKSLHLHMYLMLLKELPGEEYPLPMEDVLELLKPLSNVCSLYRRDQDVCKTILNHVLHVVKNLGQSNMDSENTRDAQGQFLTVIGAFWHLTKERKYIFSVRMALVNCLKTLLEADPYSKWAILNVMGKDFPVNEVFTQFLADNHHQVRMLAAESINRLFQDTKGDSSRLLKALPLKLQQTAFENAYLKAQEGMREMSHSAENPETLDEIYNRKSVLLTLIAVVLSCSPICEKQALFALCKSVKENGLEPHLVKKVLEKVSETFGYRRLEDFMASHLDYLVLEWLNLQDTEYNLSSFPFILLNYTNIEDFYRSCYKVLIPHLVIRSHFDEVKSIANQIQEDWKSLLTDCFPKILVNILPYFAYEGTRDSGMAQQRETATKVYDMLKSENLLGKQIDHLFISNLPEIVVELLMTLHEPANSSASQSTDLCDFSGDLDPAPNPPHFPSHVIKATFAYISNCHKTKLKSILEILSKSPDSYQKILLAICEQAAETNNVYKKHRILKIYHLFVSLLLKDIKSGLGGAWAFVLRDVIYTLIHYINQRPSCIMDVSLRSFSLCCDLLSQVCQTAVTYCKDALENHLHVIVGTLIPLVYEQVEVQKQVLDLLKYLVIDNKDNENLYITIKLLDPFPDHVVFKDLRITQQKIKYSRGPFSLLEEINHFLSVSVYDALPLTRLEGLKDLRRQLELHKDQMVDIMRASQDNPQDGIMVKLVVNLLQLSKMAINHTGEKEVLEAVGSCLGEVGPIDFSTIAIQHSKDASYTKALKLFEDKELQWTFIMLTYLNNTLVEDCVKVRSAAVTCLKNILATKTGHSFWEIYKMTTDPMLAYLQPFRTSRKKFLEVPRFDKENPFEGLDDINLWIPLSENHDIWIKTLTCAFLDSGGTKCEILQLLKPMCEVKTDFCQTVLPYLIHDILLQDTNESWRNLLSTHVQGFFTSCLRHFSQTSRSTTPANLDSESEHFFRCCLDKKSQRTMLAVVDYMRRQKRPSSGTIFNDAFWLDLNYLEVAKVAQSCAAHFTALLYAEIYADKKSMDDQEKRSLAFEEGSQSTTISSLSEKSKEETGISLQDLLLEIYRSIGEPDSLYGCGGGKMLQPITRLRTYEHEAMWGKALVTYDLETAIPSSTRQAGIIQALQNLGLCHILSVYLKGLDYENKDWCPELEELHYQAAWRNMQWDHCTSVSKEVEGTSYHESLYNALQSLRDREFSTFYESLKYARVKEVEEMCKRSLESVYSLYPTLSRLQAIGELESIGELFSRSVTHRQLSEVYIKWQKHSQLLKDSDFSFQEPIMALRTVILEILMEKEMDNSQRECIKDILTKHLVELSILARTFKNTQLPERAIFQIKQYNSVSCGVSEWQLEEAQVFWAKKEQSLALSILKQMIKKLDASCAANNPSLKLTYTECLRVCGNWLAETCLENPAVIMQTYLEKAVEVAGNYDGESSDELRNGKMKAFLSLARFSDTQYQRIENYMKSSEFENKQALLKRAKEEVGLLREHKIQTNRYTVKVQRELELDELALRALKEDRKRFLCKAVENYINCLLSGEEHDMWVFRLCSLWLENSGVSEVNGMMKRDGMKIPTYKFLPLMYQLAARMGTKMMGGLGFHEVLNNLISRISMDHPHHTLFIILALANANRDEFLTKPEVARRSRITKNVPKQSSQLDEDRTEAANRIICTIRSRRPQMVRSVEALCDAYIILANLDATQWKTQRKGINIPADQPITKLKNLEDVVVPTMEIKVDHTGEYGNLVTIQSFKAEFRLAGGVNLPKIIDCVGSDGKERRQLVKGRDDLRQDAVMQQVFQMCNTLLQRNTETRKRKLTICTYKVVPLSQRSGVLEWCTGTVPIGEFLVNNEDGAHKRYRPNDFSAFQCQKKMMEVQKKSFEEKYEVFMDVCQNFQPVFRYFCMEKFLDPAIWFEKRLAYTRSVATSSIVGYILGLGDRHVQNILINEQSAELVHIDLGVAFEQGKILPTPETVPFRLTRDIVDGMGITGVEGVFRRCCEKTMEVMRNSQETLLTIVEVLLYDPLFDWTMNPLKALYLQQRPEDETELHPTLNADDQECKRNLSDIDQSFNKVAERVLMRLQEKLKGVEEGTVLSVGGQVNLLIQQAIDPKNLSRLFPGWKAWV", "assay": "Inhibition of ATM in human Jurkat cell lysates at 0.3 uM in presence of biotinylated ADP by KiNativ profiling based mass spectrometry", "format": "subcellular"}, "[9]": {"assay": "Oral bioavailability in CD-1 mouse at 20 mg/kg formulated as suspension in 0.5% methocel and 0.02% SLS in 50 mM citrate buffer measured for 24 hrs by reverse phase liquid chromatography coupled to mass spectrometry", "format": "ADME, organism-based", "conditions": "in vivo"}, "[10]": {"assay": "Oral bioavailability in Beagle dog at 5 mg/kg formulated as suspension in 0.5% methocel and 0.02% SLS in 50 mM citrate buffer measured for 24 hrs by reverse phase liquid chromatography coupled to mass spectrometry", "format": "ADME, organism-based, Canis lupus familiaris", "conditions": "in vivo"}, "LoVo": {"system": "LoVo", "assay": "Cytotoxicity against human LoVo cells assessed as reduction in cell viability incubated for 5 days by CellTiter-Glo assay", "format": "functional, cell-based", "conditions": "120 h"}, "[11]": {"assay": "Toxicity in BALB/c mouse assessed as mature red blood cells at 10 mg/kg, po qd for 3 days", "format": "organism-based", "conditions": "in vivo, 72 h, time 3 day"}, "[12]": {"assay": "Toxicity in BALB/c mouse assessed as depletion of erythroid lineage by measuring increase in myeloid to erythroid ratio in bone marrow at 10 mg/kg, po qd for 3 days", "format": "organism-based", "conditions": "in vivo, 72 h, time 3 day"}, "[13]": {"assay": "Toxicity in BALB/c mouse assessed as morphological changes in myeloid lineage cells in bone marrow at 10 mg/kg, po qd for 3 days", "format": "organism-based", "conditions": "in vivo, 72 h, time 3 day"}, "[14]": {"assay": "Toxicity in BALB/c mouse assessed as early stage erythroblasts in bone marrow at 10 mg/kg, po qd for 3 days and measured at 1 day after treatment discontinuation by flow cytometry", "format": "organism-based", "conditions": "in vivo, 72 h, time 3 day"}, "[15]": {"assay": "Toxicity in BALB/c mouse assessed as early stage erythroblasts in bone marrow at 10 mg/kg, po qd for 3 days and measured at 2 days after treatment discontinuation by flow cytometry", "format": "organism-based", "conditions": "in vivo, 72 h, time 3 day"}, "[16]": {"assay": "Toxicity in BALB/c mouse assessed as reticulocytes in bone marrow at 10 mg/kg, po qd for 3 days and measured at 4 days after treatment discontinuation", "format": "organism-based", "conditions": "in vivo, 72 h, time 3 day"}, "[17]": {"assay": "Toxicity in BALB/c mouse assessed as late stage erythroblasts in bone marrow at 10 mg/kg, po qd for 3 days and 4 days off intermittent dosing for 4 cycles by flow cytometry", "format": "organism-based", "conditions": "in vivo, 672 h, time 28 day"}, "[18]": {"assay": "Toxicity in NOD-SCID mouse xenografted with human Granta-519 cells assessed as changes in body weight at 30 mg/kg, po qd for 3 days and measured at 4 days after drug treatment cessation", "format": "organism-based", "conditions": "in vivo, 72 h, time 3 day"}, "[19]": {"assay": "Toxicity in NOD-SCID mouse xenografted with human Granta-519 cells assessed as red blood cells at 30 mg/kg, po qd for 3 days and 4 days off treatment and measured on day 14", "format": "organism-based", "conditions": "in vivo, 72 h, time 3 day"}, "[20]": {"assay": "Toxicity in NOD-SCID mouse xenografted with human Granta-519 cells assessed as circulating reticulocytes at 30 mg/kg, po qd for 3 days and 4 days off treatment and measured on day 14", "format": "organism-based", "conditions": "in vivo, 72 h, time 3 day"}, "[21]": {"assay": "Clearance in CD-1 mouse at 1 mg/kg, iv formulated as a solution in 10% PG:18% PEG400 in water or 5% NMP:95% (10% VitE TPGS in water) measured for 24 hrs by reverse phase liquid chromatography coupled to mass spectrometry", "format": "ADME, organism-based", "conditions": "in vivo"}, "[22]": {"assay": "Clearance in Beagle dog at 0.5 mg/kg, iv formulated as a solution in 10% PG:18% PEG400 in water or 5% NMP:95% (10% VitE TPGS in water) measured for 24 hrs by reverse phase liquid chromatography coupled to mass spectrometry", "format": "ADME, organism-based, Canis lupus familiaris", "conditions": "in vivo"}, "[23]": {"assay": "Clearance in cynomolgus monkey at 0.5 mg/kg, iv formulated as a solution in 10% PG:18% PEG400 in water or 5% NMP:95% (10% VitE TPGS in water) measured for 24 hrs by reverse phase liquid chromatography coupled to mass spectrometry", "format": "ADME, organism-based, Macaca fascicularis", "conditions": "in vivo"}, "[24]": {"assay": "Toxicity in NOD-SCID mouse xenografted with human Granta-519 cells assessed as reduction in late stage erythroblasts at 10 mg/kg, po qd for 1 day by flow cytometry", "format": "organism-based", "conditions": "in vivo, 24 h"}, "[25]": {"assay": "Toxicity in NOD-SCID mouse xenografted with human Granta-519 cells assessed as reduction in early stage erythroblasts in bone marrow at 10 mg/kg, po qd for 1 day co-administered with PARP inhibitor, niraparib by flow cytometry", "format": "organism-based", "conditions": "in vivo, 24 h"}, "[26]": {"assay": "Toxicity in NOD-SCID mouse xenografted with human Granta-519 cells assessed as reduction in late stage erythroblasts in bone marrow at 10 mg/kg, po qd for 1 day co-administered with PARP inhibitor, niraparib by flow cytometry", "format": "organism-based", "conditions": "in vivo, 24 h"}, "[27]": {"assay": "Toxicity in NOD-SCID mouse xenografted with human Granta-519 cells assessed as late stage erythroblasts in bone marrow at 10 mg/kg, po qd for 3 days and measured at 2 days after treatment cessation by flow cytometry", "format": "organism-based", "conditions": "in vivo, 72 h, time 3 day"}, "[28]": {"assay": "Toxicity in NOD-SCID mouse xenografted with human Granta-519 cells assessed as early stage erythroblasts in bone marrow at 10 mg/kg, po qd for 3 days and measured at 4 days after treatment cessation by flow cytometry", "format": "organism-based", "conditions": "in vivo, 72 h, time 3 day"}, "[29]": {"assay": "Toxicity in NOD-SCID mouse xenografted with human Granta-519 cells assessed as late stage erythroblasts in bone marrow at 10 mg/kg, po qd for 3 days co-administered with PARP inhibitor, niraparib and measured at 4 days after treatment cessation by flow cytometry", "format": "organism-based", "conditions": "in vivo, 72 h, time 3 day"}, "[30]": {"assay": "Toxicity in NOD-SCID mouse xenografted with human Granta-519 cells assessed as reticulocytes count at 5 mg/kg, po qd for 3 days and 4 days off intermittent dosing for 3 cycles co-administered with PARP inhibitor, niraparib and measured on day 21", "format": "organism-based", "conditions": "in vivo, 504 h, time 21 day"}},
  "note": "Active and inactive are the calls of the source. No cut-off for these calls is given here.",
  "data": [
    {"smiles": "C[C@@H]1COCCN1c1cc([C@]2(O)C[C@H]3CC[C@@H](C2)O3)c2cnn(-c3cc[nH]n3)c2n1", "note": "[CAMONSERTIB]", "values": [
      {"measurement": "clearance", "setting": "[1]", "value": 22, "unit": "mL/min/kg"},
      {"measurement": "microsomal CLint at 1 µM", "setting": "[2]", "value": 97, "unit": "µL/min/mg"},
      {"measurement": "hepatocyte CLint at 1 µM", "setting": "[3]", "value": 17, "unit": "µL/min/1e6 cells"},
      {"measurement": "microsomal CLint at 1 µM", "setting": "[4]", "value": "< 11.6", "unit": "µL/min/mg"},
      {"measurement": "hepatocyte CLint at 1 µM", "setting": "[5]", "value": "< 1", "unit": "µL/min/1e6 cells"},
      {"measurement": "inhibition", "setting": "[6]", "value": "Active"},
      {"measurement": "inhibition", "setting": "[7]", "value": "Active"},
      {"measurement": "inhibition", "setting": "[8]", "value": "Active"},
      {"measurement": "bioavailability", "setting": "[9]", "value": 72, "unit": "%"},
      {"measurement": "bioavailability", "setting": "[10]", "value": 113, "unit": "%"},
      {"measurement": "IC50", "setting": "LoVo", "value": 28, "unit": "nM"},
      {"measurement": "Activity", "setting": "[11]", "value": "Non-Toxic"},
      {"measurement": "Activity", "setting": "[12]", "value": "Toxic"},
      {"measurement": "Activity", "setting": "[13]", "value": "Non-Toxic"},
      {"measurement": "Activity", "setting": "[14]", "value": "Non-Toxic"},
      {"measurement": "Activity", "setting": "[15]", "value": "Non-Toxic"},
      {"measurement": "Activity", "setting": "[16]", "value": "Non-Toxic"},
      {"measurement": "Activity", "setting": "[17]", "value": "Non-Toxic"},
      {"measurement": "Activity", "setting": "[18]", "value": "Non-Toxic"},
      {"measurement": "Activity", "setting": "[19]", "value": "Non-Toxic"},
      {"measurement": "Activity", "setting": "[20]", "value": "Non-Toxic"},
      {"measurement": "clearance", "setting": "[21]", "value": 1.2, "unit": "mL/min/kg"},
      {"measurement": "clearance", "setting": "[22]", "value": 10.1, "unit": "mL/min/kg"},
      {"measurement": "clearance", "setting": "[23]", "value": 14, "unit": "mL/min/kg"},
      {"measurement": "Activity", "setting": "[24]", "value": "Toxic"},
      {"measurement": "Activity", "setting": "[25]", "value": "Toxic"},
      {"measurement": "Activity", "setting": "[26]", "value": "Toxic"},
      {"measurement": "Activity", "setting": "[27]", "value": "Non-Toxic"},
      {"measurement": "Activity", "setting": "[28]", "value": "Non-Toxic"},
      {"measurement": "Activity", "setting": "[29]", "value": "Non-Toxic"},
      {"measurement": "Activity", "setting": "[30]", "value": "Non-Toxic"}
    ]}
  ]
}
